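Exposure lasted 48 hours, with cells grown in 96-well plates and compounds tested at five concentrations. GI50 = concentration required for 50% inhibition of growth. TGI denotes the concentration required for complete inhibition of growth.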

Among the test systems are HT29 colon; ACHN renal; SF-268 CNS; A498 renal; KM12 colon; HCT-15 colon; HCT-116 colon; UO-31 renal; CCRF-CEM leukemia; EKVX NSCLC.
Holding throughout (test): NCI-60 cell line screen, 48 h

Regarding `O=C(c1ccccc1)c1c(NCC(O)CN2CCOCC2)n(Cc2ccccc2)c(=O)n(Cc2ccccc2)c1=O` (stereo not given), the GI50 in the test with HT29 colon was 26.4 µM; in the test on ACHN renal it was 40.5 µM; with SF-268 CNS it was over 79.8 µM; in the test with A498 renal, 27.5 µM; in the test on KM12 colon, 40.4 µM; in the test with HCT-15 colon, 34.4 µM. For the same compound, the GI50 was 34.1 µM in the test on HCT-116 colon, 34.5 µM in the test on UO-31 renal, 41.3 µM in the test with CCRF-CEM leukemia and over 48.6 µM with EKVX NSCLC. Further, the TGI was over 62.9 µM with HT29 colon; over 100 µM with ACHN renal; over 100 µM in the test on SF-268 CNS; over 88.8 µM with A498 renal; over 100 µM in the test with KM12 colon; over 100 µM in the test on HCT-15 colon. The TGI was over 100 µM in the test on HCT-116 colon, over 100 µM in the test with UO-31 renal, over 100 µM in the test with CCRF-CEM leukemia and over 90.8 µM in the test on EKVX NSCLC.
As for `Cc1cc(O)c(C2=NN(c3ccc(S(N)(=O)=O)cc3)C(c3ccc(Cl)cc3)C2)c(C)c1Cl` (stereo not given), the GI50 with HT29 colon is 3.3 µM; in the test with ACHN renal it was 3.7 µM; in the test on SF-268 CNS, 5.76 µM; with A498 renal it was 6.97 µM; in the test with KM12 colon it was 2.8 µM; with HCT-15 colon, 5.48 µM. The GI50 is 3.47 µM with HCT-116 colon, 3.78 µM with UO-31 renal, 3.64 µM in the test on CCRF-CEM leukemia and 1.88 µM in the test on EKVX NSCLC. Moreover, the TGI in the test with HT29 colon came to 11 µM; with ACHN renal it was 14.4 µM; in the test with SF-268 CNS it was 19.4 µM; in the test with A498 renal, 19.3 µM; with KM12 colon, 10.6 µM; in the test on HCT-15 colon, 20.8 µM. The TGI in the test on HCT-116 colon is 12.9 µM; in the test with UO-31 renal, 19.2 µM; with CCRF-CEM leukemia, 13.5 µM; with EKVX NSCLC, 13.6 µM.
With `Cc1cc(N(CCC#N)CCC#N)ccc1N=Nc1ccc(Br)cc1`, the TGI was over 100 µM in the test on HT29 colon; over 42.2 µM in the test with ACHN renal; over 100 µM with SF-268 CNS; 30 µM in the test on A498 renal; over 100 µM with KM12 colon; over 100 µM with HCT-15 colon. Also, the TGI in the test with HCT-116 colon is over 100 µM; in the test on UO-31 renal it was over 57.6 µM; in the test on CCRF-CEM leukemia, over 31.6 µM; in the test with EKVX NSCLC, over 74.4 µM.
As to `Cc1ccc(N=Nc2c(O)ccc3ccccc23)cc1`, the TGI in the test with HT29 colon, in the test with ACHN renal, in the test on SF-268 CNS, in the test on A498 renal, with KM12 colon and with HCT-15 colon was over 100 µM each time. Also, the TGI in the test with HCT-116 colon is over 100 µM; with UO-31 renal, over 100 µM; in the test on CCRF-CEM leukemia it was 75.8 µM; in the test with EKVX NSCLC, over 100 µM.
In the case of `c1cncc(CNCc2cccnc2)c1`, the TGI with HT29 colon, with ACHN renal, in the test with SF-268 CNS, with A498 renal, in the test with KM12 colon and in the test with HCT-15 colon was over 100 µM in each case. Moreover, the TGI in the test on HCT-116 colon, in the test with UO-31 renal, in the test on CCRF-CEM leukemia and in the test on EKVX NSCLC was over 100 µM throughout.
Consider `O=C1/C(=C/c2ccccc2)CN(C(=O)CCN2CCCC2)C/C1=C\c1ccccc1`, for which the TGI in the test with HT29 colon was found to be 2.54 µM; in the test with ACHN renal, 4.78 µM; in the test on SF-268 CNS, 5.8 µM; in the test on A498 renal, 13 µM; in the test with KM12 colon, 1.82 µM; with HCT-15 colon it was 3.97 µM. Also, the TGI in the test with HCT-116 colon was found to be 0.674 µM; with UO-31 renal, 7.73 µM; with CCRF-CEM leukemia, 1.06 µM; in the test with EKVX NSCLC, 7.15 µM.
As for `Cc1c2cc(Cl)c3ccccc3c2c[n+]2ccccc12`, the GI50 in the test with HT29 colon is 14 µM; in the test with ACHN renal, 22 µM; in the test with SF-268 CNS, 0.364 µM; with A498 renal, over 49.4 µM; in the test on KM12 colon, 1.95 µM; in the test with HCT-15 colon it was 41.8 µM. The GI50 was 7.2 µM in the test with HCT-116 colon, 9.18 µM with UO-31 renal, 3.36 µM in the test with CCRF-CEM leukemia and 2.46 µM in the test on EKVX NSCLC. Moreover, the TGI with HT29 colon is 43.1 µM; in the test with ACHN renal, over 100 µM; in the test with SF-268 CNS, 1.58 µM; in the test with A498 renal it was over 100 µM; in the test on KM12 colon, 9.31 µM; in the test on HCT-15 colon it was over 100 µM. Besides, the TGI in the test on HCT-116 colon is 32.9 µM; in the test with UO-31 renal, over 100 µM; in the test on CCRF-CEM leukemia it was 26.3 µM; with EKVX NSCLC, over 100 µM.
For the compound `COC(=O)COc1ccc(/C=C2/N=C(c3ccccc3)N(c3c(C)n(C)n(-c4ccccc4)c3=O)C2=O)cc1`, the GI50 in the test with HT29 colon was 18.3 µM; in the test on ACHN renal, 17.6 µM; in the test on SF-268 CNS it was 12.8 µM; in the test with A498 renal, 26.1 µM; in the test with KM12 colon, 26.6 µM; with HCT-15 colon, 66.5 µM. The GI50 with HCT-116 colon was 32.4 µM; in the test with UO-31 renal, 17 µM; in the test on CCRF-CEM leukemia it was 13.2 µM; in the test with EKVX NSCLC it was 37.8 µM. In addition, the TGI in the test with HT29 colon is 35.7 µM; with ACHN renal it was 31.4 µM; with SF-268 CNS, 30.5 µM; in the test on A498 renal, 44.1 µM; with KM12 colon, 84.2 µM; with HCT-15 colon it was over 100 µM. Also, the TGI with HCT-116 colon is over 100 µM; in the test on UO-31 renal it was 32.3 µM; in the test on CCRF-CEM leukemia, 50.2 µM; in the test with EKVX NSCLC it was over 100 µM.
